Data as given in publication PMC7419507, “In vitro Cas9-assisted editing of modular polyketide synthase genes to produce desired natural product derivatives” (Nature Communications, 2020).
“And” between values parts separate entries of the source, which are not always exact repeats. Equal entries are not always repeated.

Legend:
Type in all cases: cell-based
[1] = tested on: Jurkat, SKOV-3 and MESO-1 cells; assay: Cytotoxicity assay, statements for all tested cell lines together; details: against the tested cell lines (Jurkat, SKOV-3, MESO-1)
Experimental: (§1) Jurkat cells were cultured in RPMI1640 medium supplemented with 10% foetal bovine serum, penicillin (50 U/ml), streptomycin (50 μg/ml), and Glutamax. SKOV-3 cells were cultured in DMEM medium supplemented with 10% fetal bovine serum, penicillin (50 U/ml), and streptomycin (50 μg/ml). MESO-1 cells were cultured in RPMI1640 medium supplemented with 10% fetal bovine serum, penicillin (50 U/ml), and streptomycin (50 μg/ml). All cell lines were seeded in a 384-well plate at a density of 1000 cells/well in 20 μl of media and incubated at 37 °C in a humidified incubator with 5% CO2. After 4 h, 2-fold dilution samples resolved in DMSO were added to the cell culture at the concentration of 0.5% (0.1 μl) and incubated for 72 h. Cell viabilities were measured using a CellTiter-Glo luminescent cell viability assay and EnVision multilabel plate reader.

FKBP12 and mTOR = molecular target: T1, FKBP12 and mTOR (Homo sapiens, UniProt P42345+P62942); assay: Fluoppi analysis: induction of FKBP12-mTOR complex formation in transfected HeLa cells; details: for Foci intensity: raw data, one replicate per line
T1 construct: host or cells: HeLa cells
Experimental: Fluoppi harbours a tetrameric fluorescent protein hAG tag and an oligomeric assembly helper Ash tag to create detectable fluorescent foci in cells when there are interactions between two proteins fused to each tag[32].
HeLa cells were maintained in DMEM (Fujifilm Wako, Osaka, Japan) supplemented with 10% FBS (Thermo Fisher Scientific, MA, USA) and 1% of Penicillin-Streptomycin (Thermo Fisher Scientific) in a humidified incubator with 5% CO2 at 37 °C. Harvested cells were plated at 1 × 10^6 cells/well in 6-well plate and incubated for 6 h. Then each 1.25 µg of phAG-mTOR and pAsh-FKBP12 (Medical and Biological Laboratories Co., Ltd., Aichi, Japan) was co-transfected with Lipofectamine 2000 reagent (Thermo Fisher Scientific) overnight. Next day, transfected cells were harvested and seeded in 384-well optical-bottom microplate (PerkinElmer, MA, USA) at a density of 3000 cells/well. After the 24 h incubation at 37 °C, cells were treated with different concentrations of compounds for 1 h. Cells were then fixed with 4% paraformaldehyde and stained with 1 µg/ml of Hoechst33342 (Thermo Fisher Scientific). Cell images of 9 visual fields/well were acquired with ×20 objective lens in Opera Phenix High-Content Screening System (PerkinElmer) and analysed by Harmony4.9 software (PerkinElmer). Because protein-protein interactions are quantified by measuring the aggregation of fluorescent elements in foci, fluorescent intensity in foci was normalised by total fluorescent intensity in each cell. EC50 values were calculated using TIBCO Spotfire 10.3 software (PerkinElmer).

T lymphoma Jurkat cells = assay: Cytotoxicity assay (CellTiter-Glo, 72 h), Jurkat; details: raw data (replicates)
Experimental: as §1

[2] = tested on: malignant pleural mesothelioma MESO-1 cells; assay: Cytotoxicity assay (CellTiter-Glo, 72 h), MESO-1; details: raw replicate data
Experimental: as §1

[3] = tested on: human ovarian adenocarcinoma SKOV-3 cells; assay: Cytotoxicity assay (CellTiter-Glo, 72 h), SKOV-3; details: raw replicate data
Experimental: as §1

T1 sequence (P42345 2025-2114 limits assumed): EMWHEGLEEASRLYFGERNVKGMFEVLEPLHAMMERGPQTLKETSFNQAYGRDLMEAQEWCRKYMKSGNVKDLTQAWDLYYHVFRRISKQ
T1 sequence (P62942 whole entry): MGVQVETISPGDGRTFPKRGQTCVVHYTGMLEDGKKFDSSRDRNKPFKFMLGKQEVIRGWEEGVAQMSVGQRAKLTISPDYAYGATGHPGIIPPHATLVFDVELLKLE

In the case of `COC1CC2CCC(C)C(O)(O2)C(=O)C(=O)N2CCCCC2C(=O)OC(C(C)CC2CCC(O)C(OC)C2)CC(O)CC(=O)C(C)CC(C)C=CC=CC=C1C` (stereo not shown) [Compound 11], the “Concentration at which cytotoxic activities were shown” value [1] is reported as “over 10 µM”, the “PPI-inducing (binding enhancing) activity between FKBP12 and mTOR compared with rapamycin (1), in words” value (FKBP12 and mTOR; Fluoppi) is reported as “completely lost the ability to induce the formation of FKBP12-mTOR complex” and the Foci intensity (FKBP12 and mTOR; conc 9.53674e-5 uM) is reported as 0.02286 and 0.01106 and 0.01492. The Foci intensity (FKBP12 and mTOR; conc 0.000190735 uM) was 0.009983 and 0.01574 and 0.02887, the Foci intensity (FKBP12 and mTOR; conc 0.00038147 uM) was 0.01899 and 0.01621 and 0.01221 and the Foci intensity (FKBP12 and mTOR; conc 0.000762939 uM) was 0.002009 and 0.003868 and 0.01862. For the same compound, the Foci intensity (FKBP12 and mTOR; conc 0.00152588 uM) was 0.02126 and 0.01678 and 0.003092, the Foci intensity (FKBP12 and mTOR; conc 0.00305176 uM) was 0.0138 and 0.01691 and 0.01576 and the Foci intensity (FKBP12 and mTOR; conc 0.00610352 uM) was 0.03172 and 0.01801 and 0.0222. The Foci intensity (FKBP12 and mTOR; conc 0.012207 uM) was 0.01093 and 0.01362 and 0.01381, the Foci intensity (FKBP12 and mTOR; conc 0.0244141 uM) was 0.01964 and 0.01491 and 0.01835 and the Foci intensity (FKBP12 and mTOR; conc 0.0488281 uM) was 0.004003 and 0.01339 and 0.01507. The Foci intensity (FKBP12 and mTOR; conc 0.0976562 uM) was 0.01375 and 0.009337 and 0.02775, the Foci intensity (FKBP12 and mTOR; conc 0.195312 uM) was 0.0177 and 0.02519 and 0.008414 and the Foci intensity (FKBP12 and mTOR; conc 0.390625 uM) was 0.01709 and 0.006803 and 0.01525. For the same compound, the Foci intensity (FKBP12 and mTOR; conc 0.78125 uM) was 0.01284 and 0.02644 and 0.03084, the Foci intensity (FKBP12 and mTOR; conc 1.5625 uM) was 0.02173 and 0.02485 and 0.03636 and the Foci intensity (FKBP12 and mTOR; conc 3.125 uM) was 0.02309 and 0.03313 and 0.02928. The Foci intensity (FKBP12 and mTOR; conc 6.25 uM) was 0.01525 and 0.02728 and 0.02945, the Foci intensity (FKBP12 and mTOR; conc 12.5 uM) was 0.02884 and 0.0389 and 0.01245 and the Foci intensity (FKBP12 and mTOR; conc 25 uM) was 0.03878 and 0.02312 and 0.004037. The Foci intensity (FKBP12 and mTOR; conc 50 uM) was 0.02187 and 0.0201 and 0.02169, the “Jurkat viability (%)” value (T lymphoma Jurkat cells; conc 9.53674e-5 uM) was 99.6% and 105.7% and 104.8% and the “Jurkat viability (%)” value (T lymphoma Jurkat cells; conc 0.000190735 uM) was 102.5% and 104.1% and 102.4%. For the same compound, the “Jurkat viability (%)” value (T lymphoma Jurkat cells; conc 0.00038147 uM) was 103.5% and 109.4% and 98.8%, the “Jurkat viability (%)” value (T lymphoma Jurkat cells; conc 0.000762939 uM) was 99.9% and 101.1% and 97.3% and the “Jurkat viability (%)” value (T lymphoma Jurkat cells; conc 0.00152588 uM) was 100.9% and 100.4% and 103.9%. For the same compound, the “Jurkat viability (%)” value (T lymphoma Jurkat cells; conc 0.00305176 uM) was 102.0% and 103.4% and 101.1%, the “Jurkat viability (%)” value (T lymphoma Jurkat cells; conc 0.00610352 uM) was 100.0% and 104.2% and 103.2% and the “Jurkat viability (%)” value (T lymphoma Jurkat cells; conc 0.012207 uM) was 106.8% and 106.3% and 106.1%. The “Jurkat viability (%)” value (T lymphoma Jurkat cells; conc 0.0244141 uM) was 104.8% and 107.2% and 106.6%, the “Jurkat viability (%)” value (T lymphoma Jurkat cells; conc 0.0488281 uM) was 97.2% and 96.3% and 106.5% and the “Jurkat viability (%)” value (T lymphoma Jurkat cells; conc 0.0976562 uM) was 106.1% and 104.1% and 111.0%. For the same compound, the “Jurkat viability (%)” value (T lymphoma Jurkat cells; conc 0.195312 uM) was 100.5% and 100.4% and 103.3%, the “Jurkat viability (%)” value (T lymphoma Jurkat cells; conc 0.390625 uM) was 100.9% and 100.4% and 105.6% and the “Jurkat viability (%)” value (T lymphoma Jurkat cells; conc 0.78125 uM) was 94.7% and 91.5% and 97.0%. For the same compound, the “Jurkat viability (%)” value (T lymphoma Jurkat cells; conc 1.5625 uM) was 93.8% and 86.6% and 86.2%, the “Jurkat viability (%)” value (T lymphoma Jurkat cells; conc 3.125 uM) was 76.9% and 80.2% and 77.8% and the “Jurkat viability (%)” value (T lymphoma Jurkat cells; conc 6.25 uM) was 68.8% and 66.4% and 70.4%. The “Jurkat viability (%)” value (T lymphoma Jurkat cells; conc 12.5 uM) was 58.6% and 56.1% and 57.5%, the “Jurkat viability (%)” value (T lymphoma Jurkat cells; conc 25 uM) was 45.9% and 41.4% and 49.3% and the “Jurkat viability (%)” value (T lymphoma Jurkat cells; conc 50 uM) was 12.3% and 11.6% and 15.7%. The “MESO1 viability (%)” value ([2]; conc 9.53674e-5 uM) was 103.9% and 103.5% and 98.5%, the “MESO1 viability (%)” value ([2]; conc 0.000190735 uM) was 96.6% and 99.4% and 97.9% and the “MESO1 viability (%)” value ([2]; conc 0.00038147 uM) was 98.3% and 99.6% and 101.3%. For the same compound, the “MESO1 viability (%)” value ([2]; conc 0.000762939 uM) was 105.2% and 96.5% and 100.7%, the “MESO1 viability (%)” value ([2]; conc 0.00152588 uM) was 101.4% and 100.3% and 96.4% and the “MESO1 viability (%)” value ([2]; conc 0.00305176 uM) was 100.9% and 90.0% and 104.4%. For the same compound, the “MESO1 viability (%)” value ([2]; conc 0.00610352 uM) was 103.9% and 99.7% and 97.3%, the “MESO1 viability (%)” value ([2]; conc 0.012207 uM) was 100.4% and 97.8% and 98.7% and the “MESO1 viability (%)” value ([2]; conc 0.0244141 uM) was 97.0% and 101.2% and 106.3%. For the same compound, the “MESO1 viability (%)” value ([2]; conc 0.0488281 uM) was 98.5% and 98.3% and 96.0%, the “MESO1 viability (%)” value ([2]; conc 0.0976562 uM) was 105.6% and 104.1% and 98.8% and the “MESO1 viability (%)” value ([2]; conc 0.195312 uM) was 98.6% and 98.7% and 91.4%. The “MESO1 viability (%)” value ([2]; conc 0.390625 uM) was 103.9% and 97.5% and 98.1%, the “MESO1 viability (%)” value ([2]; conc 0.78125 uM) was 94.8% and 90.3% and 84.8% and the “MESO1 viability (%)” value ([2]; conc 1.5625 uM) was 93.0% and 93.7% and 91.6%. For the same compound, the “MESO1 viability (%)” value ([2]; conc 3.125 uM) was 84.8% and 80.8% and 88.7%, the “MESO1 viability (%)” value ([2]; conc 6.25 uM) was 89.0% and 88.1% and 84.7% and the “MESO1 viability (%)” value ([2]; conc 12.5 uM) was 82.3% and 77.8% and 85.2%. For the same compound, the “MESO1 viability (%)” value ([2]; conc 25 uM) was 76.7% and 80.1% and 74.6%, the “MESO1 viability (%)” value ([2]; conc 50 uM) was 57.9% and 55.6% and 52.8% and the “SKOV3 viability (%)” value ([3]; conc 9.53674e-5 uM) was 103.0% and 111.8% and 102.7%. The “SKOV3 viability (%)” value ([3]; conc 0.000190735 uM) was 100.4% and 96.2% and 95.8%, the “SKOV3 viability (%)” value ([3]; conc 0.00038147 uM) was 103.1% and 104.5% and 105.0% and the “SKOV3 viability (%)” value ([3]; conc 0.000762939 uM) was 97.9% and 100.1% and 100.0%. The “SKOV3 viability (%)” value ([3]; conc 0.00152588 uM) was 106.4% and 105.2% and 101.9%, the “SKOV3 viability (%)” value ([3]; conc 0.00305176 uM) was 98.6% and 97.0% and 99.4% and the “SKOV3 viability (%)” value ([3]; conc 0.00610352 uM) was 109.3% and 103.3% and 106.5%. The “SKOV3 viability (%)” value ([3]; conc 0.012207 uM) was 99.6% and 97.7% and 101.2%, the “SKOV3 viability (%)” value ([3]; conc 0.0244141 uM) was 103.3% and 106.1% and 104.6% and the “SKOV3 viability (%)” value ([3]; conc 0.0488281 uM) was 98.5% and 100.3% and 98.3%. For the same compound, the “SKOV3 viability (%)” value ([3]; conc 0.0976562 uM) was 105.4% and 104.9% and 104.3%, the “SKOV3 viability (%)” value ([3]; conc 0.195312 uM) was 95.0% and 97.7% and 100.1% and the “SKOV3 viability (%)” value ([3]; conc 0.390625 uM) was 104.0% and 107.6% and 105.3%. The “SKOV3 viability (%)” value ([3]; conc 0.78125 uM) was 100.0% and 99.8% and 98.6%, the “SKOV3 viability (%)” value ([3]; conc 1.5625 uM) was 98.3% and 102.6% and 98.7% and the “SKOV3 viability (%)” value ([3]; conc 3.125 uM) was 98.0% and 99.6% and 88.9%. The “SKOV3 viability (%)” value ([3]; conc 6.25 uM) was 95.1% and 93.6% and 91.3%, the “SKOV3 viability (%)” value ([3]; conc 12.5 uM) was 92.5% and 90.6% and 91.1% and the “SKOV3 viability (%)” value ([3]; conc 25 uM) was 91.0% and 92.9% and 94.1%. For the same compound, the “SKOV3 viability (%)” value ([3]; conc 50 uM) was 83.8% and 79.2% and 82.0%.
